Experimental data published in PubChem BioAssay AID330 (DTP/NCI, 2004).
Values joined by “and” are separate entries in the source; they are usually repeats but may differ in a detail not shown here. Equal values may be shown once. Inconclusive results and toxic doses are left out. Peptide text beside a SMILES is read from it. * marks the point of attachment. Boc = CC(C)(C)OC(=O)*

Test system: P388 leukemia ip, CD2F1 mice, survival T/C
Assay: NCI In Vivo Anticancer Drug Screen. Data for tumor model P388 Leukemia (intraperitoneal) in CD2F1 (CDF1) mice
Details: endpoint: median survival time, higher = longer survival
How it was run: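 Mice carrying the transplanted tumor received test compound or vehicle. Survival was recorded in each group, and the value is the treated-group measurement divided by that of the vehicle-treated control group.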

[1] = dose: 100.0 mg/kg/injection, schedule: Q04DX003 (ip), vehicle: saline with Tween-80
[2] = dose: 200.0 mg/kg/injection, schedule: Q04DX003 (ip), vehicle: saline with Tween-80
[3] = dose: 60.0 mg/kg/injection, schedule: Q01DX005 (ip), vehicle: saline
[4] = dose: 50.0 mg/kg/injection, schedule: Q01DX009 (ip), vehicle: Klucel (hydroxypropylcellulose) (HPC)
[5] = dose: 100.0 mg/kg/injection, schedule: Q01DX009 (ip), vehicle: Klucel (hydroxypropylcellulose) (HPC)
[6] = dose: 50.0 mg/kg/injection, schedule: Q01DX005 (ip), vehicle: Klucel (hydroxypropylcellulose) (HPC)
[7] = dose: 100.0 mg/kg/injection, schedule: Q01DX005 (ip), vehicle: Klucel (hydroxypropylcellulose) (HPC)
[8] = dose: 200.0 mg/kg/injection, schedule: Q01DX005 (ip), vehicle: Klucel (hydroxypropylcellulose) (HPC)
[9] = dose: 100.0 mg/kg/injection, schedule: Q01DX001 (ip), vehicle: Klucel (hydroxypropylcellulose) (HPC)
[10] = dose: 100.0 mg/kg/injection, schedule: Q04DX003 (ip), vehicle: saline
[11] = dose: 200.0 mg/kg/injection, schedule: Q04DX003 (ip), vehicle: saline

SMILES: CC(NC(=O)CN(C)C(=O)OCc1ccccc1)C(=O)O (configuration not stated)
- T/C (dose: 50.0 mg/kg/injection, schedule: Q01DX005 (ip), vehicle: saline): 102 % of control
- T/C (dose: 100.0 mg/kg/injection, schedule: Q01DX005 (ip), vehicle: saline): 96 % of control
- T/C (dose: 200.0 mg/kg/injection, schedule: Q01DX005 (ip), vehicle: saline): 100 % of control

SMILES: Cc1ccc(S(=O)(=O)/N=S(/C)c2ccccc2)cc1 (configuration not stated)
- T/C [1]: 110 % of control
- T/C [2]: 100 % of control
- T/C (dose: 400.0 mg/kg/injection, schedule: Q04DX003 (ip), vehicle: saline with Tween-80): 120 % of control

SMILES: CC(C)Oc1nc(N2CCNCC2)nc2c1CCC2
- T/C (dose: 15.0 mg/kg/injection, schedule: Q01DX005 (ip), vehicle: saline): 101 % of control
- T/C (dose: 30.0 mg/kg/injection, schedule: Q01DX005 (ip), vehicle: saline): 94 % of control
- T/C [3]: 101 % of control

SMILES: CC1CCC[N-]C1.CC1CCC[N-]C1.CC1CCC[N-]C1.CC1CCC[N-]C1.[Cl][Rh][Cl] (configuration not stated)
- T/C (dose: 1.5 mg/kg/injection, schedule: Q01DX009 (ip), vehicle: saline): 122 % of control
- T/C (dose: 6.0 mg/kg/injection, schedule: Q01DX009 (ip), vehicle: saline): 152 % of control

SMILES: C/C(=N/NC(=S)N1CCCCCC1)c1ncccn1
- T/C (dose: 6.25 mg/kg/injection, schedule: Q01DX005 (ip), vehicle: saline with Tween-80): 104 % of control
- T/C (dose: 12.5 mg/kg/injection, schedule: Q01DX005 (ip), vehicle: saline with Tween-80): 115 % of control

SMILES: COc1ccc(NC(=O)CCC(=O)O)cc1
- T/C (dose: 100.0 mg/kg/injection, schedule: Q01DX009 (ip), vehicle: saline with Tween-80): 95 % of control
- T/C (dose: 200.0 mg/kg/injection, schedule: Q01DX009 (ip), vehicle: saline with Tween-80): 95 % of control
- T/C (dose: 400.0 mg/kg/injection, schedule: Q01DX009 (ip), vehicle: saline with Tween-80): 91 % of control

SMILES: CCOc1c(N=Nc2ccccc2C)c(-c2ccccc2)nn1C(N)=S
- T/C (dose: 50.0 mg/kg/injection, schedule: Q01DX005 (ip), vehicle: saline with Tween-80): 90 % of control
- T/C (dose: 100.0 mg/kg/injection, schedule: Q01DX005 (ip), vehicle: saline with Tween-80): 88 % of control
- T/C (dose: 200.0 mg/kg/injection, schedule: Q01DX005 (ip), vehicle: saline with Tween-80): 90 % of control

SMILES: COc1cc(CC2COCC2Cc2ccc3c(c2)OCO3)cc(OC)c1OC (configuration not stated)
- T/C (dose: 1.25 mg/kg/injection, schedule: Q04DX002 (ip), vehicle: acetone): 101 % of control and 103 % of control
- T/C (dose: 2.5 mg/kg/injection, schedule: Q04DX002 (ip), vehicle: acetone): 101 % of control and 96 % of control and 104 % of control
- T/C (dose: 5.0 mg/kg/injection, schedule: Q04DX002 (ip), vehicle: acetone): 93 % of control and 96 % of control and 103 % of control

SMILES: COC(=O)Nc1nc2ccc(C(=O)OC(C)C)cc2[nH]1
- T/C [1]: 111 % of control and 116 % of control
- T/C [2]: 118 % of control
- T/C (dose: 800.0 mg/kg/injection, schedule: Q04DX003 (ip), vehicle: saline with Tween-80): 155 % of control

SMILES: CN(C)c1ccc2c(c1)Sc1cc(N(C)C)ccc1N2C(=O)c1ccccc1
- T/C (dose: 12.5 mg/kg/injection, schedule: Q01DX009 (ip), vehicle: Klucel (hydroxypropylcellulose) (HPC)): 105 % of control
- T/C (dose: 25.0 mg/kg/injection, schedule: Q01DX009 (ip), vehicle: Klucel (hydroxypropylcellulose) (HPC)): 103 % of control
- T/C [4]: 102 % of control
- T/C [5]: 98 % of control

SMILES: C[n+]1ccccc1C#N
- T/C (dose: 12.5 mg/kg/injection, schedule: Q01DX009 (ip), vehicle: saline): 109 % of control
- T/C (dose: 25.0 mg/kg/injection, schedule: Q01DX009 (ip), vehicle: saline): 104 % of control
- T/C (dose: 50.0 mg/kg/injection, schedule: Q01DX009 (ip), vehicle: saline): 104 % of control

SMILES: CN(C)CC(CN(C)C)C(O)c1ccccc1 (configuration not stated)
- T/C [3]: 109 % of control
- T/C (dose: 120.0 mg/kg/injection, schedule: Q01DX005 (ip), vehicle: saline): 100 % of control
- T/C (dose: 240.0 mg/kg/injection, schedule: Q01DX005 (ip), vehicle: saline): 109 % of control

SMILES: Cc1[nH]n(-c2cc(S(=O)(=O)O)ccc2Cl)c(=O)c1N=Nc1c(NC(=O)c2ccc(N)cc2)ccc2cc(S(=O)(=O)O)ccc12
- T/C [6]: 96 % of control
- T/C [7]: 105 % of control
- T/C [8]: 115 % of control

SMILES: CC1(C)N=C(N)N=C(N)N1c1ccc(CCc2ccc(S(=O)(=O)F)cc2)c(Cl)c1
- T/C (dose: 25.0 mg/kg/injection, schedule: Q04DX003 (ip), vehicle: saline with Tween-80): 118 % of control
- T/C (dose: 33.0 mg/kg/injection, schedule: Q04DX003 (ip), vehicle: saline sonified): 118 % of control
- T/C (dose: 50.0 mg/kg/injection, schedule: Q04DX003 (ip), vehicle: saline sonified): 118 % of control
- T/C [1]: 113 % of control

SMILES: COC(CN(C)C)C(Cl)(Cl)Cl (configuration not stated)
- T/C [4]: 103 % of control
- T/C [5]: 108 % of control
- T/C (dose: 200.0 mg/kg/injection, schedule: Q01DX009 (ip), vehicle: Klucel (hydroxypropylcellulose) (HPC)): 101 % of control

SMILES: COCC12CN(C)C3C4C(OC)C1C3(C(OC)CC2O)C1CC2(O)C(OC)C(O)C4(OC(C)=O)C1C2OC(=O)c1ccccc1 (configuration not stated)
- T/C (dose: 0.09 mg/kg/injection, schedule: Q01DX005 (ip), vehicle: Klucel (hydroxypropylcellulose) (HPC)): 100 % of control
- T/C (dose: 12.0 micrograms/kg/injection, schedule: Q01DX005 (ip), vehicle: Klucel (hydroxypropylcellulose) (HPC)): 91 % of control
- T/C (dose: 24.0 micrograms/kg/injection, schedule: Q01DX005 (ip), vehicle: Klucel (hydroxypropylcellulose) (HPC)): 98 % of control and 101 % of control
- T/C (dose: 48.0 micrograms/kg/injection, schedule: Q01DX005 (ip), vehicle: Klucel (hydroxypropylcellulose) (HPC)): 100 % of control and 101 % of control

SMILES: C1CCC2(CC1)SC1(CCCCC1)SC1(CCCCC1)S2
- T/C (dose: 100.0 mg/kg/injection, schedule: Q04DX003 (ip), vehicle: other): 100 % of control
- T/C (dose: 200.0 mg/kg/injection, schedule: Q04DX003 (ip), vehicle: other): 90 % of control
- T/C (dose: 400.0 mg/kg/injection, schedule: Q04DX003 (ip), vehicle: other): 95 % of control

SMILES: Nc1ncnc2ncn(CC(O)CN(CCO)CCO)c12 (configuration not stated)
- T/C (dose: 60.0 mg/kg/injection, schedule: Q01DX005 (ip), vehicle: Klucel (hydroxypropylcellulose) (HPC)): 100 % of control
- T/C (dose: 120.0 mg/kg/injection, schedule: Q01DX005 (ip), vehicle: Klucel (hydroxypropylcellulose) (HPC)): 97 % of control
- T/C (dose: 240.0 mg/kg/injection, schedule: Q01DX005 (ip), vehicle: Klucel (hydroxypropylcellulose) (HPC)): 95 % of control

SMILES: O=c1cc[nH]c2ccc3ccccc3c12
- T/C [9]: 97 % of control
- T/C (dose: 200.0 mg/kg/injection, schedule: Q01DX001 (ip), vehicle: Klucel (hydroxypropylcellulose) (HPC)): 96 % of control

SMILES: O=C(O)C1CSC2(CCCC2)N1 (configuration not stated)
- T/C [10]: 101 % of control
- T/C [11]: 98 % of control
- T/C (dose: 400.0 mg/kg/injection, schedule: Q04DX003 (ip), vehicle: saline): 98 % of control

SMILES: COC(=O)C(Cc1ccccc1)NC(=O)C(Cc1ccccc1)NC(=O)OC(C)(C)C (stereo not drawn) (Boc-Phe-Phe-OMe; configuration not given here)
- T/C [6]: 97 % of control
- T/C [7]: 95 % of control
- T/C [8]: 101 % of control

SMILES: O=C1N(CCN2CCC3(CC2)OCCO3)CCN1c1cc(Cl)cc(Cl)c1
- T/C (dose: 12.5 mg/kg/injection, schedule: Q01DX009 (ip), vehicle: water): 104 % of control and 105 % of control and 113 % of control
- T/C (dose: 25.0 mg/kg/injection, schedule: Q01DX009 (ip), vehicle: water): 105 % of control and 112 % of control and 123 % of control
- T/C (dose: 100.0 mg/kg/injection, schedule: Q01DX009 (ip), vehicle: water): 105 % of control and 110 % of control
- T/C (dose: 200.0 mg/kg/injection, schedule: Q01DX009 (ip), vehicle: water): 108 % of control

SMILES: [BH]n1cccn1.[CH3][Sn]([CH3])[N]=C=S
- T/C [10]: 117 % of control
- T/C [11]: 117 % of control

SMILES: Oc1ccc(/C=N/NC(=S)Nc2ccccc2)nc1
- T/C (dose: 265.0 mg/kg/injection, schedule: Q04DX003 (ip), vehicle: Klucel (hydroxypropylcellulose) (HPC)): 114 % of control
- T/C (dose: 400.0 mg/kg/injection, schedule: Q04DX003 (ip), vehicle: Klucel (hydroxypropylcellulose) (HPC)): 123 % of control
- T/C (dose: 600.0 mg/kg/injection, schedule: Q04DX003 (ip), vehicle: Klucel (hydroxypropylcellulose) (HPC)): 117 % of control

SMILES: O=C1C=CC2(C=C1)CCCCC2
- T/C (dose: 50.0 mg/kg/injection, schedule: Q01DX001 (ip), vehicle: Klucel (hydroxypropylcellulose) (HPC)): 91 % of control
- T/C [9]: 101 % of control

SMILES: O=C1C(Cl)=C(Nc2cc(Cl)ccc2Cl)C(=O)c2ccccc21
- T/C (dose: 60.0 mg/kg/injection, schedule: Q01DX005 (ip), vehicle: saline with Tween-80): 98 % of control
- T/C (dose: 120.0 mg/kg/injection, schedule: Q01DX005 (ip), vehicle: saline with Tween-80): 102 % of control
- T/C (dose: 240.0 mg/kg/injection, schedule: Q01DX005 (ip), vehicle: saline with Tween-80): 101 % of control
